{"source": "patent EP3714904B1", "about": "“IMINODIACETIC ACID SUBSTITUTED CYCLODEXTRINS AS POTENTIATORS OF BETA-LACTAM ANTIBIOTICS” (NATIONAL CENTER FOR SCIENTIFIC RESEARCH \"DEMOKRITOS\" (NCSRD), priority 2019, dated 2020)", "key": {"[1]": {"system": "NDM, VIM and IMP producing K. pneumoniae clinical isolates", "assay": "Time kill assays", "assay_type": "cell-based", "method": "In Fig. 3 the results of the time-kill assays are shown. […] Results are expressed as log10 CFU/mL. Experiments were performed in duplicate. Antibiotic-free control cultures were included in each set of experiments as controls. Error bars are indicative of standard error mean (SEM) (n=2 replicates)."}, "[2]": {"assay_type": "in vivo", "conditions": "dosing schemes up to 500 mg/kg", "method": "The acute in-vivo toxicity of β-IDACYD was also determined to provide range-finding doses to be used in in-vivo studies and possibly implicate target organs for toxicity."}}}
{"smiles": "CO[C@@H]1[C@@H](OC)[C@H]2O[C@H]3[C@H](OC)[C@@H](OC)[C@@H](O[C@H]4[C@H](OC)[C@@H](OC)[C@@H](O[C@H]5[C@H](OC)[C@@H](OC)[C@@H](O[C@H]6[C@H](OC)[C@@H](OC)[C@@H](O[C@H]7[C@H](OC)[C@@H](OC)[C@@H](O[C@H]8[C@H](OC)[C@@H](OC)[C@@H](O[C@@H]1[C@@H](CN(CC(=O)O)CC(=O)O)O2)O[C@@H]8CN(CC(=O)O)CC(=O)O)O[C@@H]7CN(CC(=O)O)CC(=O)O)O[C@@H]6CN(CC(=O)O)CC(=O)O)O[C@@H]5CN(CC(=O)O)CC(=O)O)O[C@@H]4CN(CC(=O)O)CC(=O)O)O[C@@H]3CN(CC(=O)O)CC(=O)O", "note": "[β-IDACYD]", "values": [{"measurement": "reduction of the bacterial load (CFU/mL) compared to that of the antibiotic alone", "setting": "[1]; 50 µM β-IDACYD with meropenem or imipenem at MIC or 2xMIC, 24 hour incubation, strains LA26, LA 109/16, 5742", "result": "> 8", "unit": "log10"}, {"measurement": "bacterial load in time-kill assay", "setting": "[1]; β-IDACYD 50 µM added to MIC or 2xMIC meropenem or imipenem", "result": "bacterial load remains close to zero"}, {"measurement": "acute in-vivo toxicity", "setting": "[2]", "result": "no deaths and no signs indicative of acute toxicity"}]}
